{"source": "patent US20090197811A1", "about": "“ORALLY ADMINISTERED PEPTIDES TO IMPROVE OR PREVENT HEPATIC FIBROSIS” (University of Southern California, priority 2007, published 2009)", "assay_type_in_all_cases": "in vivo, mouse", "key": {"C57Bl/6J mice [1]": {"tested_on": "C57Bl/6J mice", "assay": "Western diet model: fibrosis by Sirius red whole-section-scanning morphometric image analysis", "details": "summary statement", "description": "(§1) Studies were performed in male C5713L/6J mice (Jackson Laboratories, Bar Harbor Me.). Six groups were studied (n=3-5, see FIG. 1) with 4 mice per group at the outset, except for group 2, which was started with n=5; 1 mouse died in group 1. Groups 1, 2, and 3 received the Western diet for 9.5 months; during the last 2.5 months of the 9.5 months, group 2 received SR141716 10 mg/kg/day i.g., and group 3 received D-4F, 125 μg/mouse/day, in the drinking water. Groups 4, 5, and 6 received the Western diet for 7 months followed by standard chow for 2.5 months; during the 2.5 months on standard chow, group 5 received SR141716 and group 6 received D-4F as described for groups 2 and 3, respectively. Additional control groups were studied: 6-month old C57Bl/6J mice as age-matched controls (n=5) and C57Bl/6J mice that received the Western diet for 6 months (n=6).\nSirius red staining was performed by the Morphology core of the USC-UCLA Research Center for Alcoholic Liver and Pancreatic Diseases. α-Smooth muscle actin.\nTissue sections stained with Sirius red were scanned by a third-generation Automated Cellular Imaging System (ACIS III), a highly automated microscope-based digital imaging system (Carl Zeiss MicroImaging AIS Inc., Aliso Viejo Calif.). The color of the Sirius red staining in the digitized tissue sections was determined and applied to a pre-existing algorithm that provides the area of a target color in μm^2. The outline of each digitized tissue section was manually traced using the computer's mouse. Areas of large portal tracts and central veins were also outlined manually. The total area (μm^2) of each tissue section and of the total area of large portal tracts and central veins were determined by the image analysis system. The area of fibrosis was calculated as [total area stained by Sirius red minus perivascular staining] as a percentage of the size of the tissue section. This method has the advantage of scanning the entire section, rather than measuring fibrosis in randomly chosen fields."}, "C57Bl/6J mice [2]": {"tested_on": "C57Bl/6J mice", "assay": "Western diet model: liver histology, assessment of steatosis and inflammation", "details": "for Fatty Change Degree of fat / Fatty Change Type (predominant type) / Inflammatory Clusters: individual mice", "description": "as §1\nThe slides were coded, without the pathologist knowing the specific treatment group that the slides represented. The histology was graded according to a number of histologic features. The degree of fat was graded as to the approximate percentage of hepatocytes containing fat: 0, absent; +/−, less than 5%; 1+, 5-25%; 2+. 26-50%; 3+, 51-75%; 4+, >75%. The fat was also assessed as to whether it was totally macrovesicular, predominantly macrovesicular, totally microvesicular, predominantly microvesicular, or mixed macro- and microvesicular. In addition, the zone was assessed as to whether the fat was perivenular, periportal, diffuse, or focal. Inflammation was graded as absent, scanty (1 to 3 foci/slide), present (scattered, with 4 to 10 foci/slide), present + (scattered, >10 foci/slide but not numerous), and present ++ (numerous). The type of inflammation was graded as totally mononuclear, predominantly mononuclear, totally neutrophilic, predominantly neutrophilic, and mixed mononuclear-neutrophilic. The hydropic change of hepatocytes was graded as absent, mild, and moderate/severe, with the location noted as perivenular, focal or diffuse."}, "C57Bl/6J mice [3]": {"tested_on": "C57Bl/6J mice", "assay": "Western diet model: biochemical findings and liver and body weights", "details": "for GSH / TBARS: liver; for ALT / AST / Adiponectin / Cholesterol / Glucose / Insulin / Leptin / Triglycerides: serum", "description": "SR141716 was a kind gift from Sanofi-Aventis, France. SR141716 was dissolved in water with 0.1% Tween and given daily by gavage for 10 weeks. D-4F is an 18-mer of D-amino acids (Ac-D-W-F-K-A-F-Y-D-K-V-A-E-K-F-K-E-A-F-NH2)^4 (SEQ ID NO: 1) that was commercially synthesized (A & A Laboratories, San Diego Calif.) with 80% purity. D-4F was dissolved in the drinking water at a concentration of 60 μg/ml water for a calculated dose corrected for drug purity of 125 μg D-4F/mouse/day.\nThe high fat diet used was the RD “Western diet” (Research Diets, D12079B), which contains 41% of calories from fat, 43% calories from carbohydrate, and 17% of calories from protein); this diet was designed to approximate the “typical” human diet of North America and Europe.\nas §1\nSerum aspartate amino transferase (AST) and alanine aminotransferase (ALT) were measured with the Infinity AST and ALT liquid assay reagent (Thermo Electron Corporation, Louisville Colo., cat #TR70121 and TR71121). Serum triglycerides and cholesterol were measured with the Infinity cholesterol assay reagent (Thermo Electron Corporation, Louisville Colo., cat #TR22321 and TR13315). Serum glucose was measured with the Glucose (HK) assay kit (Sigma, St. Louis, Mo., cat #GAHK-20). Serum insulin was measured with the Mercodia Ultrasensitive mouse insulin ELISA kit (ALPCO Diagnostics, Salem N.H., cat #10 1150-01). The homeostasis model assessment insulin resistance index (HOMA-IR) was calculated as [fasting glucose (mmol/liter)*fasting insulin (microunits/ml)]/22.5^17, 18. Serum leptin was measured with the TiterZyme EIA mouse leptin kit (Assay Designs Inc, Ann Arbor Mich., cat #900-019). Serum adiponectin was measured with the mouse adiponectin kit (Biovendor LLC, Candler N.C., cat #RD 293023100). Thiobarbituric acid reactive substance (TBARS) was measured as previously described^19, 20; in brief, liver was homogenized and diluted 1:1 in 10% ice cold trichloroacetic acid. 0.5 ml supernatant or of a standard solution of 1,1,3,3-tetraethoxypropane was mixed with 0.5 ml of 0.6% (w/v) 4,6-dihydroxy-2-thiopyrimidine. The solution was boiled for 30 min, cooled and centrifuged. Absorbance was measured at 532 nm with a Shimadzu TV-2101 PC spectrophotometer. To measure hepatic glutathione (GSH), liver was homogenized and diluted 1:1 in 10% ice cold trichloroacetic acid. GSH in the supernatant was measured according to the recycling assay of Tietze^21."}, "[4]": {"details": "7 months Western diet followed by 2.5 months Western diet + drug"}, "[5]": {"details": "7 months Western diet followed by 2.5 months chow + drug"}}, "note": "Values joined by “and” are separate entries in the source; they are usually repeats but may differ in a detail not shown here. Equal values may be shown once. “Also recorded” adds a separate entry of the source.", "data": [{"smiles": "Cc1c(C(=O)NN2CCCCC2)nn(-c2ccc(Cl)cc2Cl)c1-c1ccc(Cl)cc1", "note": "[SR141716, reference compound]", "values": [{"measurement": "progression of fibrosis after onset of steatohepatitis", "setting": "C57Bl/6J mice [1]", "value": "prevented progression of fibrosis"}, {"measurement": "Fatty Change Degree of fat", "setting": "C57Bl/6J mice [2]; [4]", "value": "4 (2×) and 3 and 1"}, {"measurement": "Fatty Change Type (predominant type)", "setting": "C57Bl/6J mice [2]; [4]", "value": "Microvesicular; also recorded: Mixed; also recorded: Macrovesicular"}, {"measurement": "Inflammatory Clusters", "setting": "C57Bl/6J mice [2]; [4]", "value": "1 and 2 (4×)"}, {"measurement": "Fatty Change Degree of fat", "setting": "C57Bl/6J mice [2]; [5]", "value": "3 (2×) and 2 and 1"}, {"measurement": "Fatty Change Type (predominant type)", "setting": "C57Bl/6J mice [2]; [5]", "value": "Microvesicular"}, {"measurement": "Inflammatory Clusters", "setting": "C57Bl/6J mice [2]; [5]", "value": "2 (3×) and 1"}, {"measurement": "steatohepatitis (summary)", "setting": "C57Bl/6J mice [2]; summary statement", "value": "improved steatohepatitis"}, {"measurement": "Body weight", "setting": "C57Bl/6J mice [3]; [4]", "value": "29.1 ± 2.0", "unit": "g"}, {"measurement": "HOMA-IR", "setting": "C57Bl/6J mice [3]; [4]", "value": "8.8 ± 3.6"}, {"measurement": "Liver weight", "setting": "C57Bl/6J mice [3]; [4]", "value": "1.54 ± 0.1", "unit": "g"}, {"measurement": "Body weight", "setting": "C57Bl/6J mice [3]; [5]", "value": "30.2 ± 1.1", "unit": "g"}, {"measurement": "HOMA-IR", "setting": "C57Bl/6J mice [3]; [5]", "value": "6.1 ± 2.0"}, {"measurement": "Liver weight", "setting": "C57Bl/6J mice [3]; [5]", "value": "1.39 ± 0.1", "unit": "g"}, {"measurement": "GSH", "setting": "C57Bl/6J mice [3]; [4]", "value": "68.7 ± 2.0", "unit": "nmole/mg protein"}, {"measurement": "TBARS", "setting": "C57Bl/6J mice [3]; [4]", "value": "17.1 ± 0.7", "unit": "nmol/g tissue"}, {"measurement": "GSH", "setting": "C57Bl/6J mice [3]; [5]", "value": "73.8 ± 2.2", "unit": "nmole/mg protein"}, {"measurement": "TBARS", "setting": "C57Bl/6J mice [3]; [5]", "value": "18.7 ± 1.09", "unit": "nmol/g tissue"}, {"measurement": "ALT", "setting": "C57Bl/6J mice [3]; [4]", "value": "54.8 ± 12.4", "unit": "U/L"}, {"measurement": "AST", "setting": "C57Bl/6J mice [3]; [4]", "value": "109.6 ± 10.4", "unit": "U/L"}, {"measurement": "Adiponectin", "setting": "C57Bl/6J mice [3]; [4]", "value": "18.4 ± 1.8", "unit": "µg/mL"}, {"measurement": "Cholesterol", "setting": "C57Bl/6J mice [3]; [4]", "value": "112.2 ± 13.7", "unit": "mg/dL"}, {"measurement": "Glucose", "setting": "C57Bl/6J mice [3]; [4]", "value": "136.3 ± 29.2", "unit": "mg/dL"}, {"measurement": "Insulin", "setting": "C57Bl/6J mice [3]; [4]", "value": "0.81 ± 0.15", "unit": "ng/mL"}, {"measurement": "Leptin", "setting": "C57Bl/6J mice [3]; [4]", "value": "2.36 ± 1.05", "unit": "ng/mL"}, {"measurement": "Triglycerides", "setting": "C57Bl/6J mice [3]; [4]", "value": "33.1 ± 2.2", "unit": "mg/dL"}, {"measurement": "ALT", "setting": "C57Bl/6J mice [3]; [5]", "value": "59.1 ± 11.4", "unit": "U/L"}, {"measurement": "AST", "setting": "C57Bl/6J mice [3]; [5]", "value": "69.1 ± 5.5", "unit": "U/L"}, {"measurement": "Adiponectin", "setting": "C57Bl/6J mice [3]; [5]", "value": "16.5 ± 2.0", "unit": "µg/mL"}, {"measurement": "Cholesterol", "setting": "C57Bl/6J mice [3]; [5]", "value": "105.3 ± 4.7", "unit": "mg/dL"}, {"measurement": "Glucose", "setting": "C57Bl/6J mice [3]; [5]", "value": "96.2 ± 3.0", "unit": "mg/dL"}, {"measurement": "Insulin", "setting": "C57Bl/6J mice [3]; [5]", "value": "0.89 ± 0.27", "unit": "ng/mL"}, {"measurement": "Leptin", "setting": "C57Bl/6J mice [3]; [5]", "value": "1.95 ± 0.72", "unit": "ng/mL"}, {"measurement": "Triglycerides", "setting": "C57Bl/6J mice [3]; [5]", "value": "47.0 ± 2.2", "unit": "mg/dL"}, {"measurement": "body weight (summary)", "setting": "C57Bl/6J mice [3]; summary statement", "value": "promoted weight loss"}, {"measurement": "insulin resistance (summary)", "setting": "C57Bl/6J mice [3]; summary statement", "value": "decreased insulin resistance"}, {"measurement": "leptin levels (summary)", "setting": "C57Bl/6J mice [3]; summary statement", "value": "decreased leptin levels"}]}]}
